The source of these data is ChEMBL document CHEMBL4266014, “Development of Hybrid Phospholipid Mimics as Effective Agonists for Liver Receptor Homologue-1” (ACS Med Chem Lett, 2018).

The target of the test is Nuclear receptor subfamily 5 group A member 2 (Homo sapiens) (UniProt O00482). Nature of the test: Agonist activity at recombinant full length human LRH1 expressed in HeLa cells up to 30 uM after 24 hrs by dual-glo luciferase reporter gene assay. The format is cell-based. (In general: A reporter such as luciferase makes a cellular process visible.)

Each structure is given as a SMILES string. The source made the active and inactive calls. The calls are words filed in the database; no cut-off is given here.

Nuclear receptor subfamily 5 group A member 2 (Homo sapiens), sequence (O00482 whole entry): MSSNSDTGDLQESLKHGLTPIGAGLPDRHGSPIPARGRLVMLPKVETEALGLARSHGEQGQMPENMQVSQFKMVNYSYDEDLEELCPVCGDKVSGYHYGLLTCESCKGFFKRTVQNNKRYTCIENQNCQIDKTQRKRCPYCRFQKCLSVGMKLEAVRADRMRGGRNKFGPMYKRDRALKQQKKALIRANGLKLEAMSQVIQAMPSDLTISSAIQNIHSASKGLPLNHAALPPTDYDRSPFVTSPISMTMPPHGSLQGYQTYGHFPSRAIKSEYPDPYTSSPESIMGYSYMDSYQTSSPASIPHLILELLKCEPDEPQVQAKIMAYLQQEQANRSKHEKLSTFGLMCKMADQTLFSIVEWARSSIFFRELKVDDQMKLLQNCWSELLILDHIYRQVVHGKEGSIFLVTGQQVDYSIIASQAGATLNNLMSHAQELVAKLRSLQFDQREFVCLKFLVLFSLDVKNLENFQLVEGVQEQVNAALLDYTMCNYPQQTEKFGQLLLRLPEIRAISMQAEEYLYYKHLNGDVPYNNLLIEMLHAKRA

With `C=C(c1ccccc1)[C@@]12CC[C@@H](O)[C@@H]1CC(CCCCCCOP(=O)([O-])OCC[N+](C)(C)C)=C2c1ccccc1`, the result was inactive.

Regarding `C=C(c1ccccc1)[C@@]12CC[C@@H](O)[C@@H]1CC(CCCCCCCOP(=O)([O-])OCC[N+](C)(C)C)=C2c1ccccc1`, the outcome was inactive. Take `C=C(c1ccccc1)[C@@]12CC[C@@H](O)[C@@H]1CC(CCCC(=O)O)=C2c1ccccc1` (relative stereo): the outcome was inactive.

On to `C=C(c1ccccc1)[C@@]12CC[C@@H](O)[C@@H]1CC(CCCCCC(=O)O)=C2c1ccccc1` (relative stereo), for which the outcome was inactive. The entry for `C=C(c1ccccc1)[C@@]12CC[C@@H](O)[C@@H]1CC(CCCCCCC(=O)O)=C2c1ccccc1` (relative stereo) is “inactive”; for `C=C(c1ccccc1)[C@@]12CC[C@@H](O)[C@@H]1CC(CCCCC(=O)O)=C2c1ccccc1` it is “inactive”; for `C=C(c1ccccc1)[C@@]12CC[C@@H](O)[C@@H]1CC(CCCCCCCCOP(=O)([O-])OCC[N+](C)(C)C)=C2c1ccccc1` it is “inactive”.
